# From patent US9420813B2, “Sweetener” (AJINOMOTO CO., INC., priority 2007, dated 2016)
# *1 amine or outer side, *2 acyl side, *3 side chain or, on linkers, in order; H or OH if unused. Where no end group is shown, it is not given here. [ ]: non-standard residue; d: D form. γGlu = O=C(O)[C@H](CCC(=O)[*:2])N[*:1]; Met(O) = CS(=O)CC[C@H](N)C(=O)O; Orn = NCCC[C@H](N)C(=O)O
# Biological target: T1, human calcium receptor (Homo sapiens, UniProt P41180)
# T1 construct: expressed in transfected cells; host or cells: Xenopus laevis oocytes injected with receptor cRNA; the gene was amplified by PCR from human kidney cDNA (Clontech) and cloned in pBR322
# T1 sequence (P41180 20-1078): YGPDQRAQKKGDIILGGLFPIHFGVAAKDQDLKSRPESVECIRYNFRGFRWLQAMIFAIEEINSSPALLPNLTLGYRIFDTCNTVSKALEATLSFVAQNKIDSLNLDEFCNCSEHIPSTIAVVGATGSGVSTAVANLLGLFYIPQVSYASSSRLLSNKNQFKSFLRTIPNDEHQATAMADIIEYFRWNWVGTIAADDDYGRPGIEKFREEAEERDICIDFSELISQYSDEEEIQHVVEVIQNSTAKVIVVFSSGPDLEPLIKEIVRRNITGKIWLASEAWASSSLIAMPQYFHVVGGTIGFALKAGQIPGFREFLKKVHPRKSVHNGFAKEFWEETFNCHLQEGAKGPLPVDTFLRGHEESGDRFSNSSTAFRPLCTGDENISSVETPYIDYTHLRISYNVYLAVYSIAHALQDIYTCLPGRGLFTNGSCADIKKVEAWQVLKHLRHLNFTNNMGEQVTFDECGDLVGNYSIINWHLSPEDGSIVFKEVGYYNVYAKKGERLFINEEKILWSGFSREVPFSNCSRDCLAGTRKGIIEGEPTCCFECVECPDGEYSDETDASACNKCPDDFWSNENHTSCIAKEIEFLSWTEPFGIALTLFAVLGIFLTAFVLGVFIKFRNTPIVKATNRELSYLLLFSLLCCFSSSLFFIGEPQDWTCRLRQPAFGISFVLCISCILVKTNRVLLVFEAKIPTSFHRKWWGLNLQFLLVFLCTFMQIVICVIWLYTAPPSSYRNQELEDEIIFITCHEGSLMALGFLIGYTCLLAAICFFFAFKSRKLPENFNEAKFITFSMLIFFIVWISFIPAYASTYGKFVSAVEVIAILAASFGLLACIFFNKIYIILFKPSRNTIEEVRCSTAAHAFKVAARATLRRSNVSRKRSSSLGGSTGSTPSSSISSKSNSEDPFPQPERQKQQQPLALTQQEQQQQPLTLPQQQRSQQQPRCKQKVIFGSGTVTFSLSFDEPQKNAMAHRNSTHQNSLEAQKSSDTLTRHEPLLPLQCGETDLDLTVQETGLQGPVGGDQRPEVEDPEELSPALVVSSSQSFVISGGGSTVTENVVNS
# Experiment: Calcium receptor-activating effect, Ca ion concentration-dependent Cl ionic current in Xenopus laevis oocyte expression system
# Assay type: cell-based
# Conditions: amino acid added at 10 mM
# Method: For evaluation of the calcium receptor-activating effect, Ca ion concentration-dependent Cl ionic current measuring method using a Xenopus laevis oocyte expression system was used. If activator is added to Xenopus laevis oocytes in which the calcium receptor is expressed, intracellular Ca ions increase. Then, the Ca ion concentration-dependent Cl channel opens, and the intracellular current value changes as an ionic current. By measuring the change in the intracellular current value, whether the calcium receptor-activating effect is present or not can be determined.
# Specifically, the abdomen of Xenopus laevis was opened, and an egg batch was taken out and then treated with a 1% collagenase solution at 20° C. for 2 hours to obtain individual oocytes. Into each oocyte, 50 nl of 1 μg/μl receptor cRNA or 50 nl of sterilized water per oocyte were injected by using a micro glass capillary, and the oocytes were cultured at 18° C. for 2 to 3 days. For the culture, a solution obtained by adding 2 mM of pyruvic acid, 10 U/ml of penicillin and 10 μg/ml of streptomycin to the solution in Reference Example 2 was used. After the culture, a test solution was added to the oocytes injected with cRNA or sterilized water. Electrophysiological measurement was performed by using an amplifier Geneclamp 500 (manufactured by Axon) and recording software AxoScope 9.0 (manufactured by Axon). The oocytes were voltage-clamped at −70 mV by the double electrode voltage clamp method, and the intracellular current via the Ca ion concentration-dependent Cl ion was measured. The maximum value of the intracellular currents was defined as the response current value.
# The ability of L-amino acids to activate the calcium receptor was evaluated by using the method described in Reference Example 6. That is, oocytes injected with cRNA of the calcium receptor or sterilized water were prepared, and voltage-clamped at −70 mV by the double electrode voltage clamp method. To the voltage-clamped oocytes, alanine (10 mM), arginine (10 mM), asparagine (10 mM), aspartic acid (10 mM), cysteine (10 mM), glutamine (10 mM), glutamic acid (10 mM), glycine (10 mM), histidine (10 mM), isoleucine (10 mM), leucine (10 mM), lysine (10 mM), methionine (10 mM), phenylalanine (10 mM), proline (10 mM), serine (10 mM), threonine (10 mM), tryptophan (10 mM), tyrosine (10 mM), valine (10 mM), ornithine (10 mM), taurine (10 mM) or hydroxyproline (10 mM) was added, and Ca ion concentration-dependent Cl response current was measured. […] 25, 2000, 97(9): 4814-9.
# The effect of D-cysteine for activating a calcium receptor was evaluated by using the method described in Reference Example 6. That is, oocytes injected with cRNA of the calcium receptor or sterilized water were prepared, and voltage-clamped at −70 mV by the double electrode voltage clamp method. To the voltage-clamped oocytes, D-cysteine (10 mM), L-cysteine (10 mM), D-tryptophan (10 mM) or L-tryptophan (10 mM) was added, and Ca ion concentration-dependent Cl response current was measured.
# The effect of peptide for activating calcium receptor was evaluated by using the method described in Reference Example 6. That is, oocytes injected with cRNA of the calcium receptor or sterilized water were prepared, and voltage-clamped at −70 mV by the double electrode voltage clamp method. To the voltage-clamped oocytes, γ-Glu-Cys-Gly (50 μM), γ-Glu-Cys(SNO)-Gly (50 μM), γ-Glu-Ala (50 μM), γ-Glu-Gly (500 μM), γ-Glu-Cys (50 μM), γ-Glu-Met (500 μM), γ-Glu-Thr (50 μM), γ-Glu-Val (50 μM), γ-Glu-Orn (500 μM), Asp-Gly (1 mM), Cys-Gly (1 mM), Cys-Met (1 mM), Glu-Cys (50 μM), Gly-Cys (500 μM) or Leu-Asp (1 mM) was added, and Ca ion concentration-dependent Cl response current was measured.
# The ability of a peptide to activate calcium receptor was evaluated in the same manner as that of Reference Example 10.
row,Compound,calcium receptor-activating effect (Ca ion concentration-dependent Cl response current)
1,N[C@H](CS)C(=O)O [D-cysteine],definite calcium receptor-activating effect
2,"N[C@@H](CS)C(=O)O [cysteine, reference compound]",definite calcium receptor-activating effect
3,"N[C@@H](Cc1c[nH]cn1)C(=O)O [histidine, reference compound]",definite calcium receptor-activating effect
4,"N[C@@H](Cc1ccccc1)C(=O)O [phenylalanine, reference compound]",definite calcium receptor-activating effect
5,"N[C@@H](Cc1c[nH]c2ccccc12)C(=O)O [tryptophan, reference compound]",definite calcium receptor-activating effect
6,"N[C@@H](Cc1ccc(O)cc1)C(=O)O [tyrosine, reference compound]",definite calcium receptor-activating effect

# Same assay, conditions: peptide added at 50 μM
row,Compound,effect for activating calcium receptor (Cl response current)
1,N[C@@H](CCC(=O)N[C@@H](CSN=O)C(=O)NCC(=O)O)C(=O)O [γ-Glu-Cys(SNO)-Gly],definite effect for activating calcium receptor
2,Glu-Cys,definite effect for activating calcium receptor
3,[γGlu]-Ala,definite effect for activating calcium receptor
4,[γGlu]-Cys,definite effect for activating calcium receptor
5,[γGlu]-Thr,definite effect for activating calcium receptor
6,[γGlu]-Val,definite effect for activating calcium receptor

# Same assay, conditions: peptide added at 500 μM
row,Compound,effect for activating calcium receptor (Cl response current)
1,Gly-Cys,definite effect for activating calcium receptor
2,[γGlu]-Gly,definite effect for activating calcium receptor
3,[γGlu]-Met,definite effect for activating calcium receptor
4,γ-Glu-Orn,definite effect for activating calcium receptor

# Same assay, conditions: peptide added at 1 mM
row,Compound,effect for activating calcium receptor (Cl response current)
1,Asp-Gly,definite effect for activating calcium receptor
2,Cys-Gly,definite effect for activating calcium receptor
3,Cys-Met,definite effect for activating calcium receptor
4,Leu-Asp,definite effect for activating calcium receptor

# Same assay, conditions: peptide added at 1,000 to 0.1 μM; Ca ion concentration-dependent Cl response current; oocytes voltage-clamped at −70 mV
row,Compound,Activity (lowest concentration at which current is detected)
1,[γGlu]-Gly-Gly [γ-Glu-Glγ-Gly],30 µM
2,[γGlu]-Ser-Gly,30 µM
3,[γGlu]-Val-Arg,"1,000 μM"
4,[γGlu]-Val-Asn,30 µM
5,[γGlu]-Val-Cys,10 µM
6,[γGlu]-Val-Gln,10 µM
7,[γGlu]-Val-Glu,"1,000 μM"
8,[γGlu]-Val-His,100 µM
9,[γGlu]-Val-Lys,"1,000 μM"
10,[γGlu]-Val-Met,"1,000 μM"
11,[γGlu]-Val-NH2,"1,000 μM"
12,[γGlu]-Val-Phe,30 µM
13,[γGlu]-Val-Pro,30 µM
14,[γGlu]-Val-Ser,30 µM
15,[γGlu]-Val-Thr,"1,000 μM"
16,[γGlu]-Val-Val,"1,000 μM"
17,[γGlu]-Val-[Orn],100 µM
18,[γGlu]-[Met(O)],"1,000 μM"
19,[γGlu]-[γGlu]-Val,"1,000 μM"
20,γ-Glu-Cys(S-Me)-Gly,3 µM
21,γ-Glu-Cys(S-allyl)-Gly,100 µM
22,γ-Glu-Tau,300 µM
23,γ-Glu-Val-Asp,"1,000 μM"
24,γ-Glu-Val-ol,"1,000 μM"
25,γ-Glu-t-Leu,100 µM

# Test system: not listed separately
# Experiment: Quantitative sensory evaluation test, intensity of kokumi-imparting activity
# Conditions: sample 0.1 g/dl; control 0, glutathione 3 points; n=3
# Method: The quantitative sensory evaluation test was performed as follows. […] When a sample is acidic when dissolved, the pH was adjusted with NaOH to pH 6.8 to 7.2 before use. Because it is known that glutathione can impart kokumi to a food, glutathione was used as a comparative control. The test was performed with n=3 based on the following sensory evaluation scores: control was given 0 points, glutathione addition was given 3 points. […] It should be noted that the term “initial and middle taste” is a collective term of the initial taste and middle taste.
# The quantitative sensory evaluation test was performed as follows. […] When a sample is acidic when dissolved, the pH of the sample was adjusted with NaOH to pH 6.8 to 7.2 before use. The test was performed with n=5 based on the following sensory evaluation scores: control was given 0 point and glutathione addition was given 3 points.
# The quantitative sensory evaluation test was performed as follows. […] As for a sample which is acidic when the sample is dissolved, pH of the sample was adjusted with NaOH to pH 6.8 to 7.2 before use. The test was performed with n=12 based on the following sensory evaluation scores: control: 0 point and glutathione addition: 3 points.
Compound,"Kokumi intensity, aftertaste","Kokumi intensity, initial and middle taste"
[γGlu]-Ala,0.2 points,0.5 points
[γGlu]-Met,0.4 points,1.5 points
[γGlu]-Val,1.0 points,3.0 points

# Same assay, conditions: sample 0.1 g/dl; control 0, glutathione 3 points; n=5
Compound,"Kokumi intensity, aftertaste","Kokumi intensity, initial and middle taste"
[γGlu]-Cys,2.0 points,2.0 points
[γGlu]-Val,1.0 points,3.0 points

# Same assay, conditions: sample 0.1 g/dl; n=5
row,Compound,Taste profile
1,[γGlu]-Cys,A slightly
